ChEMBL document CHEMBL4251579, “Design, synthesis, and biological evaluation of a series of resorcinol-based N-benzyl benzamide derivatives as potent Hsp90 inhibitors” (Eur J Med Chem, 2018)
Active and inactive are the calls of the source. The rule behind the calls is not given here.

Experiments:
NCI-H1975 [1] = assay: Antiproliferative activity against human NCI-H1975 cells after 72 hrs by Cell Titer 96 Aqueous One Solution cell proliferation assay; type: functional; conditions: NCI-H1975, 72 h
SK-BR-3 = assay: Antiproliferative activity against human SKBR3 cells after 72 hrs by Cell Titer 96 Aqueous One Solution cell proliferation assay; type: functional
[2] = molecular target: T1, Heat shock protein HSP 90-alpha (Homo sapiens, UniProt P07900); assay: Inhibition of FITC-geldanamycin binding to N-terminal domain of recombinant full-length HSP90alpha (unknown origin) after 16 hrs by fluorescence polarization assay
[3] = molecular target: T2, Heat shock protein HSP90 (Homo sapiens) (UniProt P07900+P08238); assay: Inhibition of HSP90 in human NCI-H1975 cells assessed as decrease in c-Raf protein expression at 0.05 to 1 uM after 24 hrs by Western blot analysis; type: cell-based
[4] = molecular target: T2, Heat shock protein HSP90 (Homo sapiens); assay: Inhibition of HSP90 in human NCI-H1975 cells assessed as decrease in Met protein expression at 0.05 to 1 uM after 24 hrs by Western blot analysis; type: cell-based
[5] = molecular target: T2, Heat shock protein HSP90 (Homo sapiens); assay: Inhibition of HSP90 in human NCI-H1975 cells assessed as induction of HSP90 expression at 0.05 to 1 uM after 24 hrs by Western blot analysis; type: cell-based
Cytochrome P450 1A2 = molecular target: T3, Cytochrome P450 1A2 (Homo sapiens, UniProt P05177); assay: Inhibition of CYP1A2 in human pooled human liver microsomes using phenacetin as substrate assessed as […] preincubated for 5 mins followed by NADPH addition measured after 15 mins by LC-MS/MS analysis; type: ADME
T3 sequence (P05177 whole entry): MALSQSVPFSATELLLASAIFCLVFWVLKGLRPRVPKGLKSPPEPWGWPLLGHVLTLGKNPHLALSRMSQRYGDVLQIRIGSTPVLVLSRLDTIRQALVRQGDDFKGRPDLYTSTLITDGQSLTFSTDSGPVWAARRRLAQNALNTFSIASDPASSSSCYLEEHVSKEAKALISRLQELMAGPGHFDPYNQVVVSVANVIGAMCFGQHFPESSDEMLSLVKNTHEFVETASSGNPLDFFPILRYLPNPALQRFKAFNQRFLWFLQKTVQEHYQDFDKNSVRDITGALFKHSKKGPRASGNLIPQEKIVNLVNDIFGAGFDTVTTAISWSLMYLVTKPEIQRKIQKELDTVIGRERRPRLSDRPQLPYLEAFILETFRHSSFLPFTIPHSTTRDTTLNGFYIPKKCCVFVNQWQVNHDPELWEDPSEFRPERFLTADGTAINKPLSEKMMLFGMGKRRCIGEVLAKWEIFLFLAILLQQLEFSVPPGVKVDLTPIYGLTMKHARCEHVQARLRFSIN

Cytochrome P450 2D6 = Cytochrome P450 2D6 (Homo sapiens, UniProt P10635); assay: Inhibition of CYP2D6 in human pooled human liver microsomes using dextromethorphan as substrate assessed as dextromethorphan O-demethylation preincubated for 5 mins followed by NADPH addition measured after 15 mins by LC-MS/MS analysis; type: ADME
Cytochrome P450 2D6, sequence (P10635 whole entry): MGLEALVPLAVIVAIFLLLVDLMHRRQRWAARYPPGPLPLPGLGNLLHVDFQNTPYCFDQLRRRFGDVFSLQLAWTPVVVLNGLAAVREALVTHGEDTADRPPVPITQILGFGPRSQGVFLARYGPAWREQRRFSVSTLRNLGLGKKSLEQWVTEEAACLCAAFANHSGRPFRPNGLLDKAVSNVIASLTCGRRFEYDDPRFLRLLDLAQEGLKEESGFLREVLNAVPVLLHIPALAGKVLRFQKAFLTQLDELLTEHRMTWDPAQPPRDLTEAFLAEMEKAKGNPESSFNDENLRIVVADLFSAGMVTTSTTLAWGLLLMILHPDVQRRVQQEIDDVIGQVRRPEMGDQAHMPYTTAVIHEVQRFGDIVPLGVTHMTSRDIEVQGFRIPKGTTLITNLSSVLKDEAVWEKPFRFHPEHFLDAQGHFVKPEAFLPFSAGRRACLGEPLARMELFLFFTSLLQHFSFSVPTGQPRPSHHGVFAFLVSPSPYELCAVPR

CYP3A = CYP3A (Homo sapiens, UniProt P08684+P20815+P24462+Q9HB55); assay: Inhibition of CYP3A in human pooled human liver microsomes using midazolam as substrate assessed as midazolam 1'-hydroxylation preincubated for 5 mins followed by NADPH addition measured after 15 mins by LC-MS/MS analysis; type: ADME; conditions: probe midazolam
Mus musculus [6] = assay: Toxicity in NOD-scid IL2Rgamma null mouse xenografted with human NCI-H1975 cells assessed as induction of abnormal behaviours at 25 to 50 mg/kg, ip measured after 21 days; type: organism-based; conditions: in vivo, 504 h
NCI-H1975 [7] = assay: Effect on beta-actin protein levels in human NCI-H1975 cells at 0.05 to 1 uM after 24 hrs by Western blot analysis; type: ADME, cell-based; conditions: nci-h1975, 24 h
[8] = molecular target: T2, Heat shock protein HSP90 (Homo sapiens); assay: Inhibition of HSP90 in human NCI-H1975 cells assessed as decrease in EGFR protein expression at 0.05 to 1 uM after 24 hrs by Western blot analysis; type: cell-based
NCI-H1975 [9] = assay: Induction of apoptosis in human NCI-H1975 cells assessed as increase in Bax expression levels at 0.05 to 1 uM after 24 by Western blot analysis; type: functional, cell-based
NCI-H1975 [10] = assay: Induction of apoptosis in human NCI-H1975 cells assessed as increase in cleaved caspase-8 expression at 0.05 to 1 uM after 24 hrs by Western blot analysis; type: functional, cell-based
Cytochrome P450 2C9 = Cytochrome P450 2C9 (Homo sapiens, UniProt P11712); assay: Inhibition of CYP2C9 in human pooled human liver microsomes using tolbutamide as substrate assessed as tolbutamide 4-methylhydroxylation preincubated for 5 mins followed by NADPH addition measured after 15 mins by LC-MS/MS analysis; type: ADME
Cytochrome P450 2C9, sequence (P11712 whole entry): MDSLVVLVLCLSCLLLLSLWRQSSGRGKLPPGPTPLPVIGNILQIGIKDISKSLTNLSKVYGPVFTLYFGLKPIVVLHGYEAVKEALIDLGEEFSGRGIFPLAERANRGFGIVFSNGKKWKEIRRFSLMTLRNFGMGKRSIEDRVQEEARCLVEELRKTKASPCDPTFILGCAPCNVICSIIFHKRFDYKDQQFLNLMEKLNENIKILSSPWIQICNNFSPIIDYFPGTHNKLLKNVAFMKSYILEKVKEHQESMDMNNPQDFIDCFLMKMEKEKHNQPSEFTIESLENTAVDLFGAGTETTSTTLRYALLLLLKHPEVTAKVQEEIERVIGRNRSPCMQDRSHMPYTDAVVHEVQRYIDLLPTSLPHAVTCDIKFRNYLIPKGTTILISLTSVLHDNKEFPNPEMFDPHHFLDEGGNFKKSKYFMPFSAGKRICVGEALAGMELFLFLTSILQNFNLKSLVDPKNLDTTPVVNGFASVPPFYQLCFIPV

[11] = molecular target: T2, Heat shock protein HSP90 (Homo sapiens); assay: Inhibition of HSP90 in human NCI-H1975 cells assessed as induction of HSP70 expression at 0.05 to 1 uM after 24 hrs by Western blot analysis; type: cell-based
[12] = molecular target: T1, Heat shock protein HSP 90-alpha; assay: Binding affinity to N-terminal domain of recombinant full-length HSP90alpha (unknown origin) by surface plasmon resonance assay
Mus musculus [13] = assay: (§1) In vivo inhibition of HSP90 in NOD-scid IL2Rgamma null mouse tumor xenografted with human NCI-H1975 cells assessed as decrease in Met protein expression at 25 to 50 mg/kg, ip dosed daily for 5 days per week followed by 2 days rest for 3 weeks and measured after 21 days post dose by haematoxylin and eosin staining-based immunohistochemical analysis; type: functional, organism-based
Mus musculus [14] = assay: as §1, with “Akt” for “Met”; type: functional, organism-based
[15] = molecular target: T2, Heat shock protein HSP90 (Homo sapiens); assay: Inhibition of HSP90 in human NCI-H1975 cells assessed as decrease in Akt protein expression at 0.05 to 1 uM after 24 hrs by Western blot analysis; type: cell-based
Mus musculus [16] = assay: as §1, with “immunoblot” for “haematoxylin and eosin staining-based immunohistochemical”; type: functional, organism-based
Cytochrome P450 2C19 = Cytochrome P450 2C19 (Homo sapiens, UniProt P33261); assay: Inhibition of CYP2C19 in human pooled human liver microsomes using omeprazole as substrate assessed as omepraozle hydroxylation preincubated for 5 mins followed by NADPH addition measured after 15 mins by LC-MS/MS analysis; type: ADME
Cytochrome P450 2C19, sequence (P33261 whole entry): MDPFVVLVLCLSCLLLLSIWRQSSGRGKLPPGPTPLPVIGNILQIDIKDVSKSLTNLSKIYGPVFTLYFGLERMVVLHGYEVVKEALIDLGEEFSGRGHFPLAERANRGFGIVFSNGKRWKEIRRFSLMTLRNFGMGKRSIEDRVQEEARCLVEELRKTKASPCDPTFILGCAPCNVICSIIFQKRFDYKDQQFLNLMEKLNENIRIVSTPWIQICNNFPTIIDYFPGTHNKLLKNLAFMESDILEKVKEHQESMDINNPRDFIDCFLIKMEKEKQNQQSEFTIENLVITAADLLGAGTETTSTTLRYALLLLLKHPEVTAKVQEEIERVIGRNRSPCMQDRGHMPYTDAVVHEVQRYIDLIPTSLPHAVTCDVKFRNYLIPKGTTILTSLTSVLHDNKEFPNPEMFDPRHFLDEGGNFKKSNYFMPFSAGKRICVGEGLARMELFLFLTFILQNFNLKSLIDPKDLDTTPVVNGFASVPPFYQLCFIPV

Mus musculus [17] = assay: as §1, with “EGFR” for “Met”; type: functional, organism-based
Mus musculus [18] = assay: as §1, with “Akt” for “Met”, “immunoblot” for “haematoxylin and eosin staining-based immunohistochemical”; type: functional, organism-based
[19] = molecular target: T2, Heat shock protein HSP90 (Homo sapiens); assay: Inhibition of HSP90 in human NCI-H1975 cells assessed as decrease in Her2 protein expression at 0.05 to 1 uM after 24 hrs by Western blot analysis; type: cell-based
Mus musculus [20] = assay: as §1, with “EGFR” for “Met”, “immunoblot” for “haematoxylin and eosin staining-based immunohistochemical”; type: functional, organism-based
NCI-H1975 [21] = assay: Induction of apoptosis in human NCI-H1975 cells assessed as increase in Bcl2 expression levels at 0.05 to 1 uM after 24 by Western blot analysis; type: functional, cell-based
NCI-H1975 [22] = assay: Induction of apoptosis in human NCI-H1975 cells assessed as increase in cleaved PARP expression at 0.05 to 1 uM after 24 hrs by Western blot analysis; type: functional, cell-based
Mus musculus [23] = assay: Toxicity in NOD-scid IL2Rgamma null mouse xenografted with human NCI-H1975 cells assessed as change in body weight at 25 to 50 mg/kg, ip dosed daily for 5 days per week followed by 2 days rest for 3 weeks and measured after 21 days post dose; type: organism-based; conditions: in vivo, 504 h
NCI-H1975 [24] = assay: Induction of apoptosis in human NCI-H1975 cells assessed as increase in cleaved caspase-3 expression at 0.05 to 1 uM after 24 hrs by Western blot analysis; type: functional, cell-based
NCI-H1975 [25] = assay: Antitumor activity against human NCI-H1975 cells xenografted in NOD-scid IL2Rgamma null mouse assessed as delay in tumor growth at 25 to 50 mg/kg, ip dosed daily for 5 days per week followed by 2 days rest for 3 weeks and measured up to 21 days post dose; type: functional, organism-based

## CN(Cc1ccccc1)C(=O)c1cc(Cl)c(O)cc1O
NCI-H1975 [1]
  GI50: 35.5 µM
SK-BR-3; SK-BR-3, 72 h
  GI50: 18.3 µM

## COc1cc(CN(C)C(=O)c2cc(Cl)c(O)cc2O)c(Br)c(OC)c1OC
NCI-H1975 [1]
  GI50: 34.3 µM
SK-BR-3; SK-BR-3, 72 h
  GI50: 7.7 µM

## COc1cc(CN(C)C(=O)c2cc(Cl)c(O)cc2O)cc(OC)c1OC
NCI-H1975 [1]
  GI50: 73.1 µM
[2]
  IC50: > 1 µM
SK-BR-3; SK-BR-3, 72 h
  GI50: 30.1 µM

## COC1=C2C[C@@H](C)C[C@H](OC)[C@H](O)[C@@H](C)/C=C(\C)[C@H](OC(N)=O)[C@@H](OC)/C=C\C=C(/C)C(=O)NC(=CC1=O)C2=O [GELDANAMYCIN]
NCI-H1975 [1]
  GI50: 0.56 µM
SK-BR-3
  GI50: inactive

## Cc1ccccc1CN(C)C(=O)c1cc(Cl)c(O)cc1O
NCI-H1975 [1]
  GI50: 47.5 µM
SK-BR-3; SK-BR-3, 72 h
  GI50: 4.2 µM

## CNC(=O)c1ccc(CN(C)C(=O)c2cc(Cl)c(O)cc2O)cc1
NCI-H1975 [1]
  GI50: 34.8 µM
[2]
  IC50: 0.496 µM

## Cc1cccc(CN(C)C(=O)c2cc(Cl)c(O)cc2O)c1
NCI-H1975 [1]
  GI50: 49.3 µM
SK-BR-3; SK-BR-3, 72 h
  GI50: 11.3 µM

## CCCNC(=O)c1ccc(CN(C)C(=O)c2cc(C(C)C)c(O)cc2O)cc1
[3]
  inhibition: Active
[4]
  inhibition: Active
[5]
  inhibition: Active
Cytochrome P450 1A2
  IC50: 34.1 µM
Cytochrome P450 2D6
  IC50: 23 µM
CYP3A
  IC50 at 15 min: 25.9 µM
Mus musculus [6]
  Activity: Non-Toxic
NCI-H1975 [7]
  Activity: Non-Toxic
[8]
  inhibition: Active
NCI-H1975 [1]
  GI50: 0.42 µM
NCI-H1975 [9]
  Activity: inactive
[2]
  IC50: 0.0053 µM
NCI-H1975 [10]
  Activity: Active
Cytochrome P450 2C9
  IC50: 5.3 µM
[11]
  inhibition: Active
[12]
  Kd: 0.00308 µM
Mus musculus [13]
  inhibition: Active
Mus musculus [14]
  inhibition: Active
[15]
  inhibition: Active
Mus musculus [16]
  inhibition: Active
Cytochrome P450 2C19
  IC50: 14.6 µM
Mus musculus [17]
  inhibition: Active
Mus musculus [18]
  inhibition: Active
[19]
  inhibition: Active
Mus musculus [20]
  inhibition: Active
NCI-H1975 [21]
  Activity: inactive
NCI-H1975 [22]
  Activity: Active
Mus musculus [23]
  Activity: Non-Toxic
NCI-H1975 [24]
  Activity: Active
NCI-H1975 [25]
  Activity: Active

## CN(Cc1ccc2c(c1)OCO2)C(=O)c1cc(Cl)c(O)cc1O
NCI-H1975 [1]
  GI50: 103 µM
SK-BR-3; SK-BR-3, 72 h
  GI50: 41.8 µM

## Cc1ccc(CN(C)C(=O)c2cc(Cl)c(O)cc2O)cc1
NCI-H1975 [1]
  GI50: 34.3 µM
SK-BR-3; SK-BR-3, 72 h
  GI50: 7.2 µM

## COc1ccc(CN(C)C(=O)c2cc(Cl)c(O)cc2O)cc1OC
NCI-H1975 [1]
  GI50: 33.4 µM
SK-BR-3; SK-BR-3, 72 h
  GI50: 7.7 µM

## CCNC(=O)c1ccc(CN(C)C(=O)c2cc(Cl)c(O)cc2O)cc1
NCI-H1975 [1]
  GI50: 21.7 µM

## CCNC(=O)c1ccc(CN(C)C(=O)c2cc(C(C)C)c(O)cc2O)cc1
NCI-H1975 [1]
  GI50: 0.46 µM

## CNC(=O)c1ccc(CN(C)C(=O)c2cc(C(C)C)c(O)cc2O)cc1
NCI-H1975 [1]
  GI50: 0.86 µM
[2]
  IC50: 0.0114 µM

## COc1ccc(CN(C)C(=O)c2cc(Cl)c(O)cc2O)cc1
NCI-H1975 [1]
  GI50: 16.7 µM
SK-BR-3; SK-BR-3, 72 h
  GI50: 7.2 µM

## O=C(NCc1ccccc1)c1cc(Cl)c(O)cc1O
NCI-H1975 [1]
  GI50: 86.2 µM
SK-BR-3
  GI50: inactive

## CCCNC(=O)c1ccc(CN(C)C(=O)c2cc(Cl)c(O)cc2O)cc1
NCI-H1975 [1]
  GI50: 20.8 µM

## COc1cc(CN(C)C(=O)c2cc(Cl)c(O)cc2O)c(Cl)c(OC)c1OC
NCI-H1975 [1]
  GI50: 33.8 µM
SK-BR-3; SK-BR-3, 72 h
  GI50: 2.4 µM
